Reference: ChEMBL document CHEMBL5726408, “Compounds for treatment of complement mediated disorders” (2017)

Target: Complement factor D (Homo sapiens, UniProt P00746)
Assay: Inhibition Assay: Human factor D (purified from human serum, Complement Technology, Inc.) at 80 nM final concentration is incubated with test compound at various concentrations for 5 minutes at room temperature in 50 mM Tris, 1M NaCl, pH 7.5. A synthetic substrate Z-L-Lys-SBzl and DTNB (Ellman's reagent) are added to final concentrations of 10 μM each. The increase in color is recorded at OD405 nm in a microplate in kinetic mode over 30 minutes with 30 second time points in a […]. IC50 values are calculated by non-linear regression from the percentage of inhibition of complement factor D activity as a function of test compound concentration.

Chain of Complement factor D (P00746 whole entry): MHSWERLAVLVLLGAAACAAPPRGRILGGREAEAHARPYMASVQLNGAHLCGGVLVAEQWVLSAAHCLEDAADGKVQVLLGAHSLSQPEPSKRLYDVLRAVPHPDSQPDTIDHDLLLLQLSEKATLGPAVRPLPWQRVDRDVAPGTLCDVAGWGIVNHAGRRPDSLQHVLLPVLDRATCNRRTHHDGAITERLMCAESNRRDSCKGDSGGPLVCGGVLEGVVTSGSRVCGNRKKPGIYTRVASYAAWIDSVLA

Row | Structure (SMILES) | IC50 [nM]
1 | NC(=O)c1nn(CC(=O)N2C[C@H](F)C[C@H]2C(=O)Nc2cccc(Br)n2)c2c1C=CC1N=C(c3cccc(Cl)c3)N=C21 (some centres not stated) | < 1000
2 | NC(=O)c1cn(CC(=O)N2C[C@H](F)C[C@H]2C(=O)Nc2cccc(-c3ccccc3Cl)c2F)c2ccsc12 | < 1000
